Results published in patent US12194026B2, “Drug for treating tinnitus” (UNIVERSITY OF SOUTH FLORIDA, priority 2018, dated 2025).
“Also recorded” adds a separate entry of the source.

How the values were obtained:
young adult CBA/CaJ mice [1] = assay: Acoustic startle reflex (ASR) amplitude, startle input-output function, salicylate (SS) tinnitus model
Method: (§1) SS can be administrated 2 hours before measuring the behavioral manifestations of tinnitus.
(§2) Behavioral assay: The presence of tinnitus may be indicated by a failure to respond to silence embedded in sound stimuli near the tinnitus frequency. A sound pulse-evoked acoustic startle reflex (ASR) is commonly used to determine if an animal can detect silent gaps in narrow-band noise and this method appears to detect tinnitus in humans. Failure of a first sound pulse to suppress a second sound pulse-evoked startle reflex is indicative of tinnitus. This ASR assay has a similar sensitivity for changes in gap detection to a behavioral conditioning paradigm in which animals are trained to response to gaps in noise. Elevations in the ASR amplitude have been linked to the presence of hyperacusis, a disorder often comorbid with tinnitus. Thus, the assay probed possible influences of BK channel function on both tinnitus and hyperacusis.
(§3) General Procedure. Mice underwent sequential assessment of the effect of treatment (baseline; sodium salicylate; sodium salicylate with BMS-191011). Baseline measures were acquired before sodium salicylate (SS) administration so that mice served as their own controls. Tinnitus was induced transiently by intraperitoneal (i.p.) injection of 250 mg/kg SS (concentration: 25 mg/mL 0.9% saline). SS induces tinnitus in humans, and SS-treated animals share markers of tinnitus with humans. Behavioral or neurophysiological manifestations of tinnitus were assessed 2 hours following SS injection, and were completed within 3.5 hours. Jastreboff et al. reported that after an i.p. injection of SS in rats, the maximum levels in blood serum occurred 1.5 hours later, while the maximum levels in the perilymph and spinal fluid reached maximum levels within 2-4 hours. However, behavioral manifestations of tinnitus are observed up to 48 hours following administration (cite). […]
Behavioral Assays. Behavioral assessment were performed as described previously (Longenecker and Galazyuk, 2011; Lowe and Walton, 2015), and as briefly outlined below. The animals were acclimated to the testing room by placing the home cage in the testing room 30 min prior to testing. The acoustic startle response (ASR), a transient motor response to a startle eliciting stimulus (SES), was converted to voltage by placing mice on a custom-built platform connected to piezoelectric transducers located inside a sound attenuated chamber. SESs were 20-ms Gaussian broadband noise bursts (1-ms rise/fall time), filtered at 500 Hz-40 kHz. To measure threshold and amplitude of the ASR, the intensity of the SES was varied between 55-115 dB SPL. Ten trials were run for each stimulus in order to acquire the startle input-output function.

IC of awake CBA/CaJ mice = assay: Multi-channel neurophysiological recordings in the inferior colliculus (IC, auditory midbrain); type: in vivo, mouse
Method: IC neurophysiological recordings. Surgery and extracellular recordings were collected and analyzed by a method identical to a procedure used in a previous study. The right IC was located stereotaxically and exposed via a small (<1.0 mm) craniotomy. Prior to recording, chlorprothixene (Taractin®, 5-12 μl/g i.m.) was administered to prevent involuntary movement via inhibition of parasympathetic nerve impulses. The animal was then secured in a custom stereotaxic frame (Newport-Klinger) in a heated (34° C.) chamber lined with sound-absorbing foam (Sonex®). Multi-unit extracellular activity was recorded using vertically oriented single shank silicon acute penetrating 16-channel electrodes with an impedance ranging from 1.2 to 2.1 MΩ (Type-A, 3 mm×100 μm; NeuroNexus Technologies). Excitatory frequency response areas (eFRAs) from all active channels were acquired simultaneously using 2 to 64 kHz, 25 ms (5 ms rise/fall) tone burst stimuli presented at 0 to 80 dB SPL in 5 dB steps. A total of 2125 frequency and intensity combinations were presented pseudo-randomly five times each at a rate of 10/s. The change in the driven response due to treatment was assessed via maximum number of spikes per stimulus within the boundary of each eFRA.

CBA/CaJ mice = assay: Auditory brainstem response (ABR) recordings before and after SS
Method: General Procedure. Mice underwent sequential assessment of the effect of treatment (baseline; sodium salicylate; sodium salicylate with BMS-191011). Baseline measures were acquired before sodium salicylate (SS) administration so that mice served as their own controls. Tinnitus was induced transiently by intraperitoneal (i.p.) injection of 250 mg/kg SS (concentration: 25 mg/mL 0.9% saline). SS induces tinnitus in humans, and SS-treated animals share markers of tinnitus with humans. Behavioral or neurophysiological manifestations of tinnitus were assessed 2 hours following SS injection, and were completed within 3.5 hours. Jastreboff et al. reported that after an i.p. injection of SS in rats, the maximum levels in blood serum occurred 1.5 hours later, while the maximum levels in the perilymph and spinal fluid reached maximum levels within 2-4 hours. However, behavioral manifestations of tinnitus are observed up to 48 hours following administration (cite). BMS-191011 (Sigma Aldrich) was administered i.p. (0.5 mg/kg) or topically (1 μL of 1-10 μM) at the dura over the auditory midbrain.
ABR Assays. To obtain an electrophysiological measure of auditory evoked activity in the auditory nerve and brainstem, ABR assays were performed as described previously (Longenecker and Galazyuk, 2011; Lowe and Walton, 2015), and as briefly outlined below. Animals were anesthetized with i.p. administration of ketamine (120 mg/kg) and xylazine (10 mg/kg). Respiration was monitored during testing and used to guide administration of supplemental anesthesia. Body temperature was kept constant at 37° C. using a feedback-controlled heating pad (Physitemp TCAT2-LV Controller, Clifton, NJ).
ABRs were recorded using BioSig software in a soundproof booth lined with echo-attenuating acoustic foam. ABRs were evoked by 256 tone burst stimuli. Tone bursts were 3 msec in duration (1-ms rise/fall time, alternating polarity) presented at 6, 12, 16, 20, 24, and 36 kHz at a rate of 29 per second, attenuated in 5 dB steps from 80 dB SPL to 15 dB below threshold or 5 dB SPL, whichever was lower. Threshold was determined by visual inspection as the lowest intensity level which produced a defined peak in two replicates. Peaks 1-5 (P1-5) were detected and measured in the ABR waveforms using custom designed MATLAB software.

BK channel = BK channel (Homo sapiens, UniProt Q12791); conditions: relative to Maxipost; cited from earlier work
animals = conditions: cited from earlier work
young adult CBA/CaJ mice [2] = assay: Gap pre-pulse inhibition of the acoustic startle (GPIAS), Gap-PPI, SS-induced tinnitus
Method: as §1, §2, §3
Modification of the ASR by stimuli placed before the SES is typically observed as a reduction in startle amplitude or pre-pulse inhibition (Hoffman and Ison, 1980; Ison and Hoffman, 1983). To probe the tinnitus percept (Longenecker and Galazyuk, 2012; Turner, 2007), Turner and colleagues used a relatively long silent gap imbedded in an ongoing narrow band noise (NBN) placed before the SES; various center frequencies of the NBN were used. The paradigm as a whole is referred to as the gap pre-pulse inhibition of the acoustic startle (GPIAS). The silent gap is demonstrably perceived; but, if the tinnitus pitch is in the region of the pitch of the ongoing NBN, the animal will presumably be impaired at detecting the gap (Turner, et al 2007). The presence of tinnitus is then indicated by a reduction in pre-pulse inhibition to the gap stimulus, or Gap-PPI, when the gap carrier pitch is near the tinnitus frequency (Turner, 2007). To perform the GPIAS assay, in this study the SES (presented at 100 dB SPL) was preceded by a 150-ms, 70-dB narrow band noise (⅓ octave) centered at 6, 12, 16, 20, or 24 kHz. During gap trials, a 50-ms silent gap was inserted 100 ms before the SES. Ten trials of each stimulus were presented to obtain the Gap PPI function.

[3] = in vivo; cited from earlier work
[4] = cited from earlier work
[5] = BMS-191011 after SS, 12, 16, 20, 24 kHz tones
[6] = BMS-191011 after SS, 60 dB tones
[7] = rats, after i.p. injection, Jastreboff et al.
[8] = SS 250 mg/kg i.p., 12-20 kHz stimuli

BK channel, sequence (Q12791 whole entry, species assumed): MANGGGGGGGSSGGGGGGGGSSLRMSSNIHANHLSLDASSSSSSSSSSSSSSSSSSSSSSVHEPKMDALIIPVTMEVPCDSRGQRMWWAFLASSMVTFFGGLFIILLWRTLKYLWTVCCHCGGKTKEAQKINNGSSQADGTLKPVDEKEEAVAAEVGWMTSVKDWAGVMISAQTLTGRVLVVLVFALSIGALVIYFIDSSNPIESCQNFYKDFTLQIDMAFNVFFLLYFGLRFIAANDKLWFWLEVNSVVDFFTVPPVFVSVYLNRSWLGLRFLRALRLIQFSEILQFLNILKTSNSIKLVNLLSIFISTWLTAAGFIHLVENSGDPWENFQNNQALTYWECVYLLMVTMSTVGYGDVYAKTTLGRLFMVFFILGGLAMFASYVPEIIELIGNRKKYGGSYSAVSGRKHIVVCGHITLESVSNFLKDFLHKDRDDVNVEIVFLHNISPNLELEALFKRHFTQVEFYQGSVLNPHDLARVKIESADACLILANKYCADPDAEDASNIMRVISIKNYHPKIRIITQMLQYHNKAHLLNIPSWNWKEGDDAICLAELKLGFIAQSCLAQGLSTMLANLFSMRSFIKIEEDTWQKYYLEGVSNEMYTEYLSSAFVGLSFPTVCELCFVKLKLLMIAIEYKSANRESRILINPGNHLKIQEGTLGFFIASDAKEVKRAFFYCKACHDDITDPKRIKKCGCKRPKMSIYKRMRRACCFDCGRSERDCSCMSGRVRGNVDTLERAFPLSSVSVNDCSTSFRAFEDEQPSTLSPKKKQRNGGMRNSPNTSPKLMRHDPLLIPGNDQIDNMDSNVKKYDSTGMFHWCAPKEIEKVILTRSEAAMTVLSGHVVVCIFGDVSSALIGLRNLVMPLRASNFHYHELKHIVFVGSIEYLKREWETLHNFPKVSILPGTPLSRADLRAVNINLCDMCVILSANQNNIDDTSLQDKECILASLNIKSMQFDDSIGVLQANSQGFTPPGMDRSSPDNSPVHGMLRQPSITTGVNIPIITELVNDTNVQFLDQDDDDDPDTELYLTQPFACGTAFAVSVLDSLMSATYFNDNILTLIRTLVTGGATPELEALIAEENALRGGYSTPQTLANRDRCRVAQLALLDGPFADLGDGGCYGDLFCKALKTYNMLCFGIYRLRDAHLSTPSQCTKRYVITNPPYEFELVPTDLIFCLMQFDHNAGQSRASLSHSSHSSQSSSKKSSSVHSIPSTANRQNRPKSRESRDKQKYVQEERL

In the case of `O=c1oc(-c2ccc(C(F)(F)F)cc2)nn1Cc1cc(Cl)ccc1O` [BMS-191011, 3-[(5-chloro-2-hydroxyphenyl)methyl]-5-[4-(trifluoromethyl)phenyl]-1,3,4-oxadiazol-2(3H)-one], the “ASR amplitude after SS treatment” value (young adult CBA/CaJ mice [1]; Example 1, mouse model, SS 2 hours before, BMS191011 i.p. 5 mg/kg) is reported as “did not appear to return this toward baseline”, the “SS-induced increase in startle amplitude intensity-response function” value (young adult CBA/CaJ mice [1]; Example 2, BMS-191011 i.p. after SS 250 mg/kg, 1 hour before testing, N=6) is reported as “did not reverse the effects of SS administration; also recorded: not significantly altered” and the “startle amplitudes, compound administered alone” value (young adult CBA/CaJ mice [1]; Example 2, without SS) is reported as “did not alter startle amplitudes”. For the same compound, the “sound-evoked activity in the IC” value (IC of awake CBA/CaJ mice; Example 1, control mice, local administration (topical application over the dura)) was “suppressed sound-evoked activity”, the “spontaneous activity (spontaneous spikes per 25 ms)” value (IC of awake CBA/CaJ mice; mice not given SS, topical 1 μL of 1-10 μM) was “remained unchanged; also recorded: no significant change” and the “reduction of sound-evoked activity (maximum number of spikes evoked by a tone)” value (IC of awake CBA/CaJ mice; mice not given SS, topical 1 μL of 1-10 μM, hours 2-4 after treatment) was about 50%. For the same compound, the “time after administration by which suppression of sound-evoked activity (maximal spikes per 25 ms stimulus) is significant” value (IC of awake CBA/CaJ mice; mice not given SS, topical at the dura, 1 μL of a 1-10 μM solution) was at most 1 h, the “effect of SS on ABR P2 amplitudes” value (CBA/CaJ mice; BMS-191011 after SS) was “did not substantively alter; also recorded: did not significantly alter the effect of SS treatment” and the “effect of SS on ABR P4 amplitudes” value (CBA/CaJ mice; BMS-191011 after SS) was “did not substantively alter; also recorded: did not significantly alter the effect of SS treatment”. The “SS-induced ABR threshold shift” value (CBA/CaJ mice; BMS-191011 after SS, 1 hour before ABR recordings) was “did not significantly alter; also recorded: not further altered”, the “SS-induced decrease in ABR P1 amplitudes” value (CBA/CaJ mice; [5]) was “did not significantly alter the effect of SS treatment” and the “SS-induced shift in ABR P1 latencies” value (CBA/CaJ mice; [5]) was “did not significantly alter; also recorded: minimally altered the effect of SS treatment”. For the same compound, the “SS-increased P2/P1 amplitude ratio” value (CBA/CaJ mice; [6]) was “did not substantively alter; also recorded: unaltered”, the “SS-increased P4/P1 amplitude ratio” value (CBA/CaJ mice; [6]) was “unaltered” and the “affinity and specificity for the BK channel compared with Maxipost” value (BK channel) was “higher affinity and specificity”. For the same compound, the “cardiac effects (heart rate, blood pressure)” value (animals; animals) was “without signs of negative cardiac effects”, the tolerability in animals (animals; in vivo) was “well-tolerated” and the “Gap-PPI for stimuli within the tinnitus percept” value (young adult CBA/CaJ mice [2]; Example 1, 16 kHz region, after SS, BMS191011 i.p. 5 mg/kg) was “returned Gap-PPI to baseline levels”. The “% Gap PPI, 12-20 kHz carriers” value (young adult CBA/CaJ mice [2]; Example 2, BMS-191011 after SS 250 mg/kg, N=6) was “returned SS-suppressed Gap-PPIs to baseline levels”, the “Gap-PPI, 24 kHz carrier” value (young adult CBA/CaJ mice [2]; Example 2, BMS-191011 after SS, outside expected tinnitus range) was “no effect on Gap-PPI” and the “Gap-PPI functions, compound administered alone” value (young adult CBA/CaJ mice [2]; Example 2, without SS) was “not significantly altered from baseline”. For the same compound, the brain availability [3] was “high brain-availability”.
In the case of `O=C([O-])c1ccccc1O.[Na+]` [SS, sodium salicylate], the “startle amplitude intensity-response function relative to baseline” value (young adult CBA/CaJ mice [1]; SS 250 mg/kg i.p. alone) is given as “increased the intensity-response function; also recorded: significant increase in startle amplitude”, the “time for which behavioral manifestations of tinnitus are observed after administration” value ([4]; following administration) is given as “up to 48 hours” and the “time of maximum levels in blood serum” value [4, 7] is given as 1.5 h. For the same compound, the “time of maximum levels in perilymph and spinal fluid” value [4, 7] was 2 to 4 h, the “ABR P1 amplitudes relative to baseline” value (CBA/CaJ mice; SS 250 mg/kg i.p.) was “significantly reduced P1 amplitudes” and the “ABR P1 latencies relative to baseline” value (CBA/CaJ mice; SS 250 mg/kg i.p.) was “longer P1 latencies; also recorded: significantly delayed P1 latencies”. The “P2/P1 amplitude ratio relative to baseline” value (CBA/CaJ mice; [8]) was “substantially increased; also recorded: significantly increased the P2/P1 ratio”, the “P4/P1 amplitude ratio relative to baseline” value (CBA/CaJ mice; [8]) was “still increased; also recorded: significantly increased the P4/P1 ratio” and the “ABR P2 amplitude relative to baseline” value (CBA/CaJ mice; SS 250 mg/kg i.p., 12-20 kHz, higher intensities (60-80 dB SPL)) was “either increased or stayed the same; also recorded: increased P2 amplitude at 80 dB”. For the same compound, the “increase in ABR thresholds” value (CBA/CaJ mice; SS 250 mg/kg i.p., across the frequency spectrum) was about 20 dB, the “Gap-PPI relative to baseline, 12-20 kHz carrier” value (young adult CBA/CaJ mice [2]; SS 250 mg/kg i.p. alone) was “reduced Gap-PPI; also recorded: significant decrease in % Gap PPI” and the “Gap-PPI, 24 kHz carrier” value (young adult CBA/CaJ mice [2]; SS 250 mg/kg i.p. alone) was “did not influence Gap-PPI”.
